# Laboratory results as given in patent US20080194574A1, “Pyrazine Derivatives As Effective Compounds Against Infectious Diseases” (AXXIMA PHARMACEUTICALS AG, priority 2003, published 2008).
# pIC50: −log10 of the molar value.
# Molecular target: T1, viral kinase pUL-97 (Human cytomegalovirus, UniProt P16788)
# T1 construct: The pUL-97 gene was cloned into a baculovirus vector; GST (glutathione S-transferase) (N); made in house; host or cells: Sf9 insect cells, baculovirus
# Experiment: UL97 kinase assay on Immobilon plate
# Format: biochemical
# Conditions: inhibition of UL 97 kinase activity; class by IC50 / % inhibition at 10 μM or 100 μM; read-out: Activity Class [A, B, C]
# Protocol: UL97 Kinase-Assay on Immobilon Plate
# The effect of pyrazine derivatives of this invention was tested on the activity of the viral kinase pUL-97. This kinase is derived from human cytomegalovirus (HCMV) (M. Marschall et al., Journal of General Virology, 2001, 82, 1439-1450). The pUL-97 gene was cloned into a baculovirus vector in order to produce GST (glutathione S-transferase) fusion protein. Insect cells (Sf9) were infected and GST-UL-97 purified via glutathione affinity columns according to standard procedures.
# The pUL-97 kinase reaction was performed as described (M. Marschall et al., Journal of General Virology, 2001, 82, 1439-1450). Briefly, 10 μl Assay buffer (3 μM ATP, 60 μg/ml myelin basic protein (MBP) as substrate), 1.0 μCi γ-[^33P]ATP and 10 μl Basic buffer (20 mM Tris-HCl pH7.5, 0.5 mM MnCl2, 1 mM DTT (Dithiothreitol)) were given to the test tube before adding various concentrations of pyrazine derivatives. The reaction was started by adding 0.2 μl pUL-97 kinase, purified from infected Sf9-insect cells as described above. The total volume was adjusted with Basic buffer to a final volume of 30 μl. The reaction mix was incubated for 1 hr at 30° C. For negative control, 10 μl 0.1M EDTA (Ethylene Diamine tetraacetate) was added to reaction mix before addition of pUL-97 protein kinase. The reaction was stopped by addition of 10 μl 0.1 M EDTA.
# Measuring Incorporation of Radioactivity:
# The Immobilon plate (Millipore) was rinsed with 50 μl methanol/well. Following addition of 100 μl 0.1 M EDTA, 20 μl of each kinase reaction mix was added to one well of the Immobilon plate. Each well was washed 4× with 250 μl 0.75% phosphoric acid and 1× with 50 μl methanol. After addition of 50 μl scintillation cocktail (Roth, Germany) per well incorporation of radioactivity was measured using a Betareader (Wallac) and enzymatic activity calculated.
# T1 sequence (P16788 whole entry): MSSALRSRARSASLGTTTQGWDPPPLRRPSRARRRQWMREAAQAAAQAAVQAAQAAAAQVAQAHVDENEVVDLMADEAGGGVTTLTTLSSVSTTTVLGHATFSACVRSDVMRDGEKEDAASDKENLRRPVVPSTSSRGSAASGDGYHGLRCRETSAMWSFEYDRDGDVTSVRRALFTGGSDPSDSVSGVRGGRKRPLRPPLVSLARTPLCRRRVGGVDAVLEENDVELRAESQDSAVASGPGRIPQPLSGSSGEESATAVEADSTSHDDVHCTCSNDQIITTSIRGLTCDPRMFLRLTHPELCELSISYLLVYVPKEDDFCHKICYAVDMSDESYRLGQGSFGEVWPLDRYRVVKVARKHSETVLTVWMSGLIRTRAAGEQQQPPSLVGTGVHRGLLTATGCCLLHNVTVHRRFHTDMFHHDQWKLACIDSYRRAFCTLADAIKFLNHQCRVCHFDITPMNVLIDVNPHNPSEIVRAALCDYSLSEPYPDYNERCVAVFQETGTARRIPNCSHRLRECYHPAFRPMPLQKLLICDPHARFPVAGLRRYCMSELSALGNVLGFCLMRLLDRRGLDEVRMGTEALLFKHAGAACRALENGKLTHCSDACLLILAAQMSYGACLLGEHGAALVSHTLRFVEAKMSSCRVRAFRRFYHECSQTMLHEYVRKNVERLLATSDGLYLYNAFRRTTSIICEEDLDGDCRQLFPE
row,pIC50,Compound
1,5.00 to 6.00,"CC(C)(C)c1ccc(-c2cncc(N3CCN(c4ccncc4)CC3)n2)cc1 [compound 257, 6′-(4-tert-Butyl-phenyl)-4-pyridin-4-yl-3,4,5,6-tetrahydro-2H-[1,2′]bipyrazinyl]"
2,4.00 to 5.00,"COc1cccc(N2CCN(c3cncc(-c4ccoc4)n3)CC2)c1 [compound 324, 6′-Furan-3-yl-4-(3-methoxy-phenyl)-3,4,5,6-tetrahydro-2H-[1,2′]bipyrazinyl]"
3,4.00 to 5.00,"Cc1ccc(N2CCN(c3cncc(-c4cccc5ccccc45)n3)CC2)cc1 [compound 230, 6′-Naphthalen-1-yl-4-p-tolyl-3,4,5,6-tetrahydro-2H-[1,2′]bipyrazinyl]"
4,4.00 to 5.00,"COc1ccccc1N1CCN(c2cncc(-c3ccc(C)cc3)n2)CC1 [compound 241, 4-(2-Methoxy-phenyl)-6′-p-tolyl-3,4,5,6-tetrahydro-2H-[1,2′]bipyrazinyl]"
5,5.00 to 6.00,"COc1ccc(N2CCN(c3cncc(-c4ccc(C#N)cc4)n3)CC2)cc1 [compound 293, 4-[4-(4-Methoxy-phenyl)-3,4,5,6-tetrahydro-2H-[1,2′]bipyrazinyl-6′-yl]-benzonitrile]"
6,4.00 to 5.00,"CC(=O)c1ccc(N2CCN(c3cncc(-c4cccc(F)c4)n3)CC2)cc1 [compound 214, 1-{4-[6′-(3-Fluoro-phenyl)-2,3,5,6-tetrahydro-[1,2′]bipyrazinyl-4-yl]-phenyl}-ethanone]"
7,5.00 to 6.00,"CCOc1ccc(-c2cncc(N3CCN(c4ccncc4)CC3)n2)cc1 [compound 260, 6′-(4-Ethoxy-phenyl)-4-pyridin-4-yl-3,4,5,6-tetrahydro-2H-[1,2′]bipyrazinyl]"
8,5.00 to 6.00,"Cc1ccc(-c2cncc(N3CCN(c4ccccn4)CC3)n2)cc1 [compound 328, 4-Pyridin-2-yl-6′-p-tolyl-3,4,5,6-tetrahydro-2H-[1,2′]bipyrazinyl]"
9,5.00 to 6.00,"COc1cccc(N2CCN(c3cncc(-c4ccc(C(N)=O)cc4)n3)CC2)c1 [compound 364, 4-[4-(3-Methoxy-phenyl)-3,4,5,6-tetrahydro-2H-[1,2′]bipyrazinyl-6′-yl]-benzamide]"

# The remaining lines, values behind:
row,Compound,pIC50
1,COc1ccc(-c2cncc(N3CCN(c4ccc(C)cc4C)CC3)n2)cc1OC [compound 288],4.00 to 5.00
2,"Fc1cccc(-c2cncc(N3CCN(c4ccc(F)cc4F)CC3)n2)c1 [compound 211, 4-(2,4-Difluoro-phenyl)-6′-(3-fluoro-phenyl)-3,4,5,6-tetrahydro-2H-[1,2′]bipyrazinyl]",4.00 to 5.00
3,"c1ccc(C2CCN(c3cncc(-c4csc5ccccc45)n3)CC2)cc1 [compound 319, 2-Benzo[b]thiophen-3-yl-6-(4-phenyl-piperidin-1-yl)-pyrazine]",4.00 to 5.00
4,"c1ccc(N2CCN(c3cncc(-c4csc5ccccc45)n3)CC2)cc1 [compound 247, 6′-Benzo[b]thiophen-3-yl-4-phenyl-3,4,5,6-tetrahydro-2H-[1,2′]bipyrazinyl]",5.00 to 6.00
5,"Cc1ccccc1-c1cncc(N2CCN(c3ccncc3)CC2)n1 [compound 256, 4-Pyridin-4-yl-6′-o-tolyl-3,4,5,6-tetrahydro-2H-[1,2′]bipyrazinyl]",4.00 to 5.00
6,"Cc1cc(C)cc(-c2cncc(N3CCN(c4ccc(F)cc4F)CC3)n2)c1 [compound 209, 4-(2,4-Difluoro-phenyl)-6′-(3,5-dimethyl-phenyl)-3,4,5,6-tetrahydro-2H-[1,2′]bipyrazinyl]",4.00 to 5.00
7,"Cc1ccc(N2CCN(c3cncc(-c4ccc(C(F)(F)F)cc4)n3)CC2)c(C)c1 [compound 354, 4-(2,4-Dimethyl-phenyl)-6′-(4-trifluoromethyl-phenyl)-3,4,5,6-tetrahydro-2H-[1,2′]bipyrazinyl]",4.00 to 5.00
8,CC(=O)c1ccc(-c2cncc(N3CCC(c4ccccc4)CC3)n2)cc1 [compound 362],5.00 to 6.00
9,"CC(=O)c1ccc(-c2cncc(N3CCN(c4ccc(C)cc4C)CC3)n2)s1 [compound 289, 1-{5-[4-(2,4-Dimethyl-phenyl)-3,4,5,6-tetrahydro-2H-[1,2′]bipyrazinyl-6′-yl]-thiophen-2-yl}-ethanone]",4.00 to 5.00
10,"COc1ccc(-c2cncc(N3CCC(c4ccccc4)CC3)n2)cc1OC [compound 360, 2-(3,4-Dimethoxy-phenyl)-6-(4-Phenyl-piperidin-1-yl)-pyrazine]",5.00 to 6.00
11,"Fc1ccc(N2CCN(c3cncc(-c4ccoc4)n3)CC2)c(F)c1 [compound 201, 4-(2,4-Difluoro-phenyl)-6′-furan-3-yl-3,4,5,6-tetrahydro-2H-[1,2′]bipyrazinyl]",5.00 to 6.00
12,"Cc1cccc(N2CCN(c3cncc(-c4cc5ccccc5s4)n3)CC2)c1C [compound 295, 6′-Benzo[b]thiophen-2-yl-4-(2,3-dimethyl-phenyl)-3,4,5,6-tetrahydro-2H-[1,2′]bipyrazinyl]",4.00 to 5.00

# Same assay, conditions: inhibition of UL 97 kinase activity; class by IC50 / % inhibition at 10 or 100 μM; read-out: Activity Class [A, B, C]
row,pIC50,Compound
1,5.00 to 6.00,"c1ccc(N2CCN(c3cncc(-c4ccc5ccccc5c4)n3)CC2)cc1 [compound 93, 6′-Naphthalen-2-yl-4-phenyl-3,4,5,6-tetrahydro-2H-[1,2′]bipyrazinyl]"
2,4.00 to 5.00,"CC(=O)c1ccc(N2CCN(c3cncc(-c4cccc5ccccc45)n3)CC2)cc1 [compound 149, 1-[4-(6′-Naphthalen-1-yl-2,3,5,6-tetrahydro-[1,2′]bipyrazinyl-4-yl)-phenyl]-ethanone]"
3,5.00 to 6.00,"CN(C)c1ccc(-c2cncc(N3CCN(c4ccccc4F)CC3)n2)cc1 [compound 195, {4-[4-(2-Fluoro-phenyl)-3,4,5,6-tetrahydro-2H-[1,2′]bipyrazinyl-6′-yl]-phenyl}-dimethyl-amine]"
4,5.00 to 6.00,"c1ccc(N2CCN(c3cncc(-c4ccoc4)n3)CC2)cc1 [compound 118, 6′-Furan-3-yl-4-phenyl-3,4,5,6-tetrahydro-2H-[1,2′]bipyrazinyl]"
5,4.00 to 5.00,"Cc1ccc(-c2cncc(N3CCN(c4cccc(C(F)(F)F)c4)CC3)n2)cc1 [compound 155, 6′-p-Tolyl-4-(3-trifluoromethyl-phenyl)-3,4,5,6-tetrahydro-2H-[1,2′]bipyrazinyl]"
6,5.00 to 6.00,"CSc1ccc(-c2cncc(N3CCN(c4cccc(Cl)c4)CC3)n2)cc1 [compound 102, 4-(3-Chloro-phenyl)-6′-(4-methylsulfanyl-phenyl)-3,4,5,6-tetrahydro-2H-[1,2′]bipyrazinyl]"
7,4.00 to 5.00,"Cc1ccc(-c2cncc(N3CCN(c4ccc(F)cc4F)CC3)n2)cc1 [compound 142, 4-(2,4-Difluoro-phenyl)-6′-p-tolyl-3,4,5,6-tetrahydro-2H-[1,2′]bipyrazinyl]"
8,5.00 to 6.00,"CSc1ccc(-c2cncc(N3CCN(c4ccc(F)cc4)CC3)n2)cc1 [compound 140, 4-(4-Fluoro-phenyl)-6′-(4-methylsulfanyl-phenyl)-3,4,5,6-tetrahydro-2H-[1,2′]bipyrazinyl]"
9,4.00 to 5.00,"CCOc1ccc(-c2cncc(N3CCN(c4ccccc4F)CC3)n2)cc1 [compound 127, 6′-(4-Ethoxy-phenyl)-4-(2-fluoro-phenyl)-3,4,5,6-tetrahydro-2H-[1,2′]bipyrazinyl]"
10,5.00 to 6.00,"NC(=O)c1ccc(-c2cnc(N)c(N3CCN(c4ccncc4)CC3)n2)cc1 [compound 74, 4-(3′-Amino-4-pyridin-4-yl-3,4,5,6-tetrahydro-2H-[1,2′]bipyrazinyl-6′-yl)-benzamide]"
11,5.00 to 6.00,"NC(=O)c1ccc(-c2cncc(N3CCN(c4cccc(Cl)c4)CC3)n2)cc1 [compound 89, 4-[4-(3-Chloro-phenyl)-3,4,5,6-tetrahydro-2H-[1,2′]bipyrazinyl-6′-yl]-benzamide]"
12,4.00 to 5.00,"Clc1cccc(N2CCN(c3cncc(-c4ccsc4)n3)CC2)c1 [compound 80, 4-(3-Chloro-phenyl)-6′-thiophen-3-yl-3,4,5,6-tetrahydro-2H-[1,2′]bipyrazinyl]"

# Further lines, the compound ahead of its results:
row,Compound,pIC50
1,"c1ccc2sc(-c3cncc(N4CCN(c5ccncc5)CC4)n3)cc2c1 [compound 69, 6′-Benzo[b]thiophen-2-yl-4-pyridin-4-yl-3,4,5,6-tetrahydro-2H-[1,2′]bipyrazinyl]",> 6.00
2,"c1ccc(N2CCN(c3cncc(-c4cccs4)n3)CC2)nc1 [compound 31, 4-Pyridin-2-yl-6′-thiophen-2-yl-3,4,5,6-tetrahydro-2H-[1,2′]bipyrazinyl]",4.00 to 5.00
3,"CCNc1cncc(-c2ccc(C(N)=O)cc2)n1 [compound 40, 4-(6-Ethylamino-pyrazin-2-yl)-benzamide]",5.00 to 6.00
4,"COc1ccc(N2CCN(c3cncc(-c4cccc5ccccc45)n3)CC2)cc1OC [compound 43, 4-(3,4-Dimethoxy-phenyl)-6′-naphthalen-1-yl-3,4,5,6-tetrahydro-2H-[1,2′]bipyrazinyl]",4.00 to 5.00
5,"OCc1cccc(-c2cncc(N3CCN(CCN4CCCC4)CC3)n2)c1 [compound 63, {3-[4-(2-Pyrrolidin-1-yl-ethyl)-3,4,5,6-tetrahydro-2H-[1,2′]bipyrazinyl-6′-yl]-phenyl}-methanol]",4.00 to 5.00
